Measurements reported in publication PMC4457528, “Identification of Novel Small Molecule Inhibitors of Oncogenic RET Kinase” (PLoS ONE, 2015).

What was measured:
Test in all cases: KinomeScan kinase panel, single concentration 10 µM
Assay type in all cases: binding
[1] = molecular target: T1, KinomeScan kinase panel (Homo sapiens, UniProt P00533, L858R); conditions: EGFR(L858R), 10 µM
T1 construct: purchased DiscoveRx (KinomeScan)

[2] = molecular target: T2, KinomeScan kinase panel (Homo sapiens, UniProt P27448); conditions: MARK3, 10 µM; read-out: score (%)
T2 construct: purchased DiscoveRx (KinomeScan)

[3] = molecular target: T3, KinomeScan kinase panel (Homo sapiens, UniProt P36888); conditions: FLT3, 10 µM; read-out: score (%)
T3 construct: purchased DiscoveRx (KinomeScan)
T3 sequence (P36888 27-993): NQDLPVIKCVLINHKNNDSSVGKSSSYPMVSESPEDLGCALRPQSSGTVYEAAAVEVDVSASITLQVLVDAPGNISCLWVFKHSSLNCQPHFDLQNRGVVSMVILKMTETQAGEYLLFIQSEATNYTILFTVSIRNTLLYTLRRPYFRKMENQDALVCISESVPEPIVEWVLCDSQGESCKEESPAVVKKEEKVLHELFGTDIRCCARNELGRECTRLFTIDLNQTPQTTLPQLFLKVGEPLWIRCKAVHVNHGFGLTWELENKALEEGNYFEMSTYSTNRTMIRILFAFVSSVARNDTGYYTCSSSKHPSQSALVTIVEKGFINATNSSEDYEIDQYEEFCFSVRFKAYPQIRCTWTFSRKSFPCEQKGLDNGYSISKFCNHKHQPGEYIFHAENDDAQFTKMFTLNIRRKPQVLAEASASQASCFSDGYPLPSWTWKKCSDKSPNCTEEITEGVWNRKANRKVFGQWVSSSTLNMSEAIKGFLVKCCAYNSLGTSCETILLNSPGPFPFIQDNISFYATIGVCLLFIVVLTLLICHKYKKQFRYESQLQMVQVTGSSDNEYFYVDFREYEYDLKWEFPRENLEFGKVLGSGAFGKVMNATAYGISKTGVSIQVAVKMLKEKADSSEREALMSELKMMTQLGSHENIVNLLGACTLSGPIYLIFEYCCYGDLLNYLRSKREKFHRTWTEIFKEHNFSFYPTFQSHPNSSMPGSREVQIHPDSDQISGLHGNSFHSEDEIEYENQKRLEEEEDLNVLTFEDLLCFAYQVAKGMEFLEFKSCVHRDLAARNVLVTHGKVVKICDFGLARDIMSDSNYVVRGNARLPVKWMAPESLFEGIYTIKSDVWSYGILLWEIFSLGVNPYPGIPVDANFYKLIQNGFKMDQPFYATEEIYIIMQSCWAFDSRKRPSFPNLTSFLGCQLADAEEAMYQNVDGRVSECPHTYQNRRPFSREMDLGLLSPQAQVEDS

[4] = molecular target: T4, KinomeScan kinase panel (Homo sapiens, UniProt P57059); conditions: 10 µM
T4 construct: purchased DiscoveRx (KinomeScan)

[5] = molecular target: T5, KinomeScan kinase panel (Homo sapiens, UniProt Q96PY6); conditions: NEK1, 10 µM; read-out: score (%)
T5 construct: purchased DiscoveRx (KinomeScan)
T5 sequence (Q96PY6 1-1258): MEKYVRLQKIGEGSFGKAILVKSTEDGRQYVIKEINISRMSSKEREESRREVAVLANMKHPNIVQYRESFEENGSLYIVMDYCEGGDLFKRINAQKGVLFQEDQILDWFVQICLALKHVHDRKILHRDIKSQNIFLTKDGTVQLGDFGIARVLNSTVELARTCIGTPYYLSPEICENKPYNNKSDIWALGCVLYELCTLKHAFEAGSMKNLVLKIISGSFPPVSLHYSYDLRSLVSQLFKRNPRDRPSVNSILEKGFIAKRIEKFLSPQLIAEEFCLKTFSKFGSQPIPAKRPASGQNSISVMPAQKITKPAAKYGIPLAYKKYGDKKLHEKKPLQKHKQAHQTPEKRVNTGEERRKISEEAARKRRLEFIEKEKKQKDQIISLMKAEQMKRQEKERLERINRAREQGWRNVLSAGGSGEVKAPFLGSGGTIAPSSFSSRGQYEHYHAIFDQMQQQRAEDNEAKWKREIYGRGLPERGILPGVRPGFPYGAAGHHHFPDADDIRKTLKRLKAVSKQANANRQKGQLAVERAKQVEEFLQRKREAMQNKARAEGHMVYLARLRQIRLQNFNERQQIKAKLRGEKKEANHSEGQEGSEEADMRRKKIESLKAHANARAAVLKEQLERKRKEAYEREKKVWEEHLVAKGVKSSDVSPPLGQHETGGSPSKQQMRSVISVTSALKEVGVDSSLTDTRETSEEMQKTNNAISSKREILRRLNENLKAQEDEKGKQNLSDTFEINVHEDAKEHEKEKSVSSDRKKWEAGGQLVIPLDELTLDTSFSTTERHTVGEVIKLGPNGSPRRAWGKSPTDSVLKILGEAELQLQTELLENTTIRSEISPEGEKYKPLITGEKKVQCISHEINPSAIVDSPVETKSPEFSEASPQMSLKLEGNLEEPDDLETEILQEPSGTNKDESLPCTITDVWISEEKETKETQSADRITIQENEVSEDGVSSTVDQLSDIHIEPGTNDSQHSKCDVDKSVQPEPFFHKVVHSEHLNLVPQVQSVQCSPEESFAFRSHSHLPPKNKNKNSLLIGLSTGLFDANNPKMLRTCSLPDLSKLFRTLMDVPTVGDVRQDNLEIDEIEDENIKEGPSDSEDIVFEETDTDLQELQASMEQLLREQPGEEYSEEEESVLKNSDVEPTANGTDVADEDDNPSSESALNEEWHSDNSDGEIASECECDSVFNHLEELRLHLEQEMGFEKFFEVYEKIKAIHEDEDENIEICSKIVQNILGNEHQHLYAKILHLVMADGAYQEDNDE

T4 sequence (P57059 whole entry): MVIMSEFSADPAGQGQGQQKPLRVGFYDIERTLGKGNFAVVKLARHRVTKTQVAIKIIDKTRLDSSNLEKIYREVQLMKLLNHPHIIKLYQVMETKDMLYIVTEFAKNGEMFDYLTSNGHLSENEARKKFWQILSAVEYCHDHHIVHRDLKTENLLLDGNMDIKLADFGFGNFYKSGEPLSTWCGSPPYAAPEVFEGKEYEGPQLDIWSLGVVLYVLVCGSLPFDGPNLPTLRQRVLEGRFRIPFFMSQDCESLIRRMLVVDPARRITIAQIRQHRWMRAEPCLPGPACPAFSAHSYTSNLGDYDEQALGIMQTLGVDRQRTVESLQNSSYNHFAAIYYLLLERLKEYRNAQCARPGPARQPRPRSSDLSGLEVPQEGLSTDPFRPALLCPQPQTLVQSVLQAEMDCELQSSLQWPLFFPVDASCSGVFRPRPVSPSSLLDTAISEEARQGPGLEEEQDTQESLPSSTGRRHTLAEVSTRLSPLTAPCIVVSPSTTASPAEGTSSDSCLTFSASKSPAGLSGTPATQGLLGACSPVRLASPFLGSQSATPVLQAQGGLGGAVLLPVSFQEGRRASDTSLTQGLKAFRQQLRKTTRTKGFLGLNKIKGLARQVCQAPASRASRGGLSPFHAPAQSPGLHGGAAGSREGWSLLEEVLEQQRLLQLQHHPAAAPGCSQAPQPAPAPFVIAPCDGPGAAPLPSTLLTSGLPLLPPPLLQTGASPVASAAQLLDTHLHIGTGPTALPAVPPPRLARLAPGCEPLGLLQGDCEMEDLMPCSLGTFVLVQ
T2 sequence (P27448 whole entry): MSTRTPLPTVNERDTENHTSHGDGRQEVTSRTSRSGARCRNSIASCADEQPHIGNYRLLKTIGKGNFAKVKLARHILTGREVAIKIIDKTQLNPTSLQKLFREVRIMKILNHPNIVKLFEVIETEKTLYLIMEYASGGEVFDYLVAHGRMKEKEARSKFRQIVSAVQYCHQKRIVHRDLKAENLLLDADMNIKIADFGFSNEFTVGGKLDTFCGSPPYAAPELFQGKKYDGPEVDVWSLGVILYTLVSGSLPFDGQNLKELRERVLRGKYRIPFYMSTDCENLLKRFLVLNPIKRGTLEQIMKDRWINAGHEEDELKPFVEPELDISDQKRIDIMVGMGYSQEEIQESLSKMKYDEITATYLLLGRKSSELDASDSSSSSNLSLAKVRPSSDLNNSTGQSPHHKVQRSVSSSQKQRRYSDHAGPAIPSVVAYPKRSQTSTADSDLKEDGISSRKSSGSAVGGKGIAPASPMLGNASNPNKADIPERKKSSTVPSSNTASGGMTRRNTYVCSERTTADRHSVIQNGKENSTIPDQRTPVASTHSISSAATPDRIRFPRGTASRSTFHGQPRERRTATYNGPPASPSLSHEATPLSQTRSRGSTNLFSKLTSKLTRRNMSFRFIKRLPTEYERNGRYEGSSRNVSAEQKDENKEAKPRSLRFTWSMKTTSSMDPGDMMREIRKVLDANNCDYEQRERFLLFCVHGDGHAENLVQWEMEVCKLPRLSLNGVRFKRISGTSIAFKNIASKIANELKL
T1 sequence (P00533 25-1210 L858R): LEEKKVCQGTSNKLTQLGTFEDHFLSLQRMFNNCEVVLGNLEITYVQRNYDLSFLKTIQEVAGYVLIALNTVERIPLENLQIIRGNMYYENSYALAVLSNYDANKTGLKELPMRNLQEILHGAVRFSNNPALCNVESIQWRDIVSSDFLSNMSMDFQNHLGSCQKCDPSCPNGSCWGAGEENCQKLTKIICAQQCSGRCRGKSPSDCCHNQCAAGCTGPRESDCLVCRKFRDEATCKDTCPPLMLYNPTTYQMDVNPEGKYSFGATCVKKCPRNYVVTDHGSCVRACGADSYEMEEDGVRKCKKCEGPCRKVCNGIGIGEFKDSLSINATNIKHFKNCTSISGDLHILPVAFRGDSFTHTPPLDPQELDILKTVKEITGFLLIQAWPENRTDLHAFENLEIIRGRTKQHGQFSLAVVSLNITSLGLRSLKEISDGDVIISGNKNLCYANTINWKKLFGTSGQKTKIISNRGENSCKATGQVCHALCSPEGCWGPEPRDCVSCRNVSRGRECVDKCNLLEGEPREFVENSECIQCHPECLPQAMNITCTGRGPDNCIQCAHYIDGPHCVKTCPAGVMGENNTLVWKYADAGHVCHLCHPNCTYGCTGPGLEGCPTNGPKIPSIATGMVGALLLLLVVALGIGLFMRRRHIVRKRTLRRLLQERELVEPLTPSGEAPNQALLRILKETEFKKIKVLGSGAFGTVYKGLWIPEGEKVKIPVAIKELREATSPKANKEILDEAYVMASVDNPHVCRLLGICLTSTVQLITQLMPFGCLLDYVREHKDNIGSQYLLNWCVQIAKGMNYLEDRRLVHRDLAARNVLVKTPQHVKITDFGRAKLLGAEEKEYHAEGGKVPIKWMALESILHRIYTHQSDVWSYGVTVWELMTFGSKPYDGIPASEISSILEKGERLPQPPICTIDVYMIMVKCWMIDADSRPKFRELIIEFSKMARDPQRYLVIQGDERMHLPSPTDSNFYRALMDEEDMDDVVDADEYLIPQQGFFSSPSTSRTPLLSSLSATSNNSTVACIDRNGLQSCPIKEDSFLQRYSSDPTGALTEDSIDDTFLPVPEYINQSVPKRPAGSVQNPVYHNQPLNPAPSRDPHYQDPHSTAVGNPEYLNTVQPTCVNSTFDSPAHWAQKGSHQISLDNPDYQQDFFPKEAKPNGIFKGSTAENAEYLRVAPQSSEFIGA

Row | score (%) ([4]; SNF1LK) | SMILES | score (%) [1] [%] | remaining binding at 10 µM [2] [%] | remaining binding at 10 µM [3] [%] | score (%) ([4]; kinase SIK) | remaining binding at 10 µM [5] [%]
1 |  | CCN1CCN(Cc2ccc(NC(=O)c3ccc(C)c(NC(=O)c4cncc(-c5cccs5)c4)c3)cc2C(F)(F)F)CC1 [ALW-II-41-27] | 0.25 | > 30 | 0.65 | 0.2 | > 30
2 | 0.3 | CCN1CCN(Cc2ccc(NC(=O)c3ccc(C)c(/C=C/c4cnc5[nH]ccc5c4Cl)c3)cc2C(F)(F)F)CC1 [HG-6-63-01, (E)-3-(2-(4-chloro-1H-pyrrolo[2,3-b]pyridin-5-yl)vinyl)-N-(4-((4-ethylpiperazin-1-yl)methyl)-3-(trifluoromethyl)phenyl)-4-methylbenzamide] | 0.4 | 29 | 0.1 |  | > 30
3 |  | CCN1CCN(Cc2ccc(NC(=O)c3ccc(C)c(C#Cc4cccnc4)c3)cc2C(F)(F)F)CC1 [XMD15-44] | 4 | > 30 | 0.25 | 0.45 | > 30
